pEC50, pKi: −log10 of the molar value. Read-outs that look alike come from different tables or passages of the source. Marks after values point to notes of the source that are not given here.
Tests used:
[1] = system: H146 cells; assay: Cellular efficacy in Bcl-XL dependent tumor cell line H146; format: cell-based; settings: Homo sapiens, NCI-H146; 10% HS
[2] = system: FL5.12-Bcl-2 cells; assay: Cellular efficacy in FL5.12 cells dependent on Bcl-2; format: cell-based, murine; settings: Mus musculus, 3% FBS
[3] = biological target: Bcl-XL (Homo sapiens, UniProt Q07817); assay: TR FRET competitive binding affinity, Bcl-XL; settings: read-out: Target Affinity TR FRET, Bcl-XL
Procedure: (§1) A comparison of the binding affinity for each of the compounds was performed to determine target affinity, as measured by Time-Resolved Fluorescence Resonance Energy Transfer (TR FRET).

[4] = system: RS4;11 cells; assay: Cellular efficacy in Bcl-2 dependent tumor cell line RS4;11; format: cell-based, human; settings: Homo sapiens, RS4-11; 10% HS
[5] = system: FL5.12-Bcl-XL cells; assay: Cellular efficacy in FL5.12 cells dependent on Bcl-XL; format: cell-based, murine; settings: Mus musculus, 3% FBS
[6] = system: peripheral blood immune cells; assay: Peripheral blood lymphocytes in C57BL/6 mice, Cell Dyn hematology analyzer; format: in vivo; settings: for inhibition in vivo at 100 mg/kg: Mus musculus, Lymphocyte
Procedure: The effect of the Bcl-2 selective/Bcl-XL sparing compounds on peripheral blood immune cells was also evaluated in C57BL/6 mice. Mice were treated four days with individual compounds (100 mg/kg, orally every day) and cell numbers were measured with a Cell Dyn hematology analyzer.

[7] = biological target: Bcl-2 (Homo sapiens, UniProt P10415); assay: TR FRET competitive binding affinity, Bcl-2; settings: read-out: Target Affinity TR FRET, Bcl-2
Procedure: as §1

[8] = biological target: Mcl-1 (Homo sapiens, UniProt Q07820); assay: TR FRET competitive binding affinity, Mcl-1; settings: read-out: Target Affinity TR FRET, Mcl-1
Procedure: as §1

[9] = system: IFNα-induced (NZB×NZW)F1 lupus model; assay: IFNα-induced (NZB×NZW)F1 lupus model: proteinuria, survival, lymphopenia; format: in vivo, (NZB×NZW)F1 mice; settings: 100 mg/kg/day orally
Procedure: Treatment was initiated in a late-prophylactic mode (7 days after IFNα adenovirus). […] All treatment groups were administered treatment 7 days after adenovirus injection. Following adenovirus injection, mice were monitored weekly for proteinuria (PU) using Albustix test strips (VWR). Severe PU was defined by consecutive weekly measurements of PU≧300 mg/dl. When mice became moribund, they were sacrificed according to Institutional Animal Care and Use Committee protocols.

[10] = system: spontaneous (NZB×NZW)F1 murine model of lupus; assay: Spontaneous (NZB×NZW)F1 murine model of lupus: proteinuria, survival, lymphopenia; format: in vivo, (NZB×NZW)F1 mice; settings: Week 47, 100 mg/kg daily oral
Excerpt: (See Liu, K. and C. Mohan, What do mouse models teach us about human SLE? Clin Immunol, 2006. 119(2): p. 123-30) This model has been well-characterized with respect to the patho-physiological changes analogous to those of human SLE. […] Renal histopathological changes include severe glomerulonephritis, mesangial and peripheral proliferative changes, capillary membrane thickening, tubular atrophy, and infiltration of lymphocytes and monocytes/macrophages as in the majority of human SLE patients. These changes result in disruption of kidney function as evidenced by severe proteinuria (PU) greater than 300 mg/dL as measured by albumin sticks, followed by mortality as measured by survival. […] (See Gelfand, M. C. and A. D. Steinberg, Therapeutic studies in NZB-W mice. II. Relative efficacy of azathioprine, cyclophosphamide and methylprednisolone. Arthritis Rheum, 1972. 15(3): p. 247-52; and Ramos, M. A., et al., Modulation of autoantibody production by mycophenolate mofetil: effects on the development of SLE in (NZB×NZW)F1 mice. Nephrol Dial Transplant, 2003. 18(5): p. 878-83)
(NZB×NZW)F1 females were purchased from The Jackson Laboratory (Bar Harbor, Me., USA) and maintained in a conventional animal housing facility throughout the experiment. […] Proteinuria (PU) and survival were monitored weekly, followed by biweekly measurement of lymphocyte and platelet counts, and anti-ds DNA production. PK parameters were also measured throughout the study. Impact on IgG deposition and renal pathology were assessed at the conclusion of the study. Severe PU was defined by two consecutive weekly measurements of PU 300 mg/dl using Albustix test strips (VWR). When mice became moribund, they were sacrificed according to Institutional Animal Care and Use Committee protocols. PU and survival data were presented as Kaplan-Meyer survival curves using Graphpad Prism software and group differences were considered significant at the level of p<0.05. Histologic scores were analyzed using ANOVA analysis. Anti-ds DNA were analyzed using one-way ANOVA analysis and Tukey post-test.

[11] = 24 h, 1 oral dose of 100 mg/kg, read-out: Day 1 % Reduction vs. Vehicle
[12] = 96 h, 4 oral doses of 100 mg/kg, read-out: Day 4 % Reduction vs. Vehicle

Bcl-XL, sequence (Q07817 whole entry): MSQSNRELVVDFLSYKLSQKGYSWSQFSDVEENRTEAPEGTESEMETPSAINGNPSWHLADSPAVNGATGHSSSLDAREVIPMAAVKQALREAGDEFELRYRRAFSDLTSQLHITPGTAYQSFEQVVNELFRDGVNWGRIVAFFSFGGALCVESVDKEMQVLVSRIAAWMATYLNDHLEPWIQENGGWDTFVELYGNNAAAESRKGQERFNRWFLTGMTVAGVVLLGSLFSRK
Bcl-2, sequence (P10415 whole entry): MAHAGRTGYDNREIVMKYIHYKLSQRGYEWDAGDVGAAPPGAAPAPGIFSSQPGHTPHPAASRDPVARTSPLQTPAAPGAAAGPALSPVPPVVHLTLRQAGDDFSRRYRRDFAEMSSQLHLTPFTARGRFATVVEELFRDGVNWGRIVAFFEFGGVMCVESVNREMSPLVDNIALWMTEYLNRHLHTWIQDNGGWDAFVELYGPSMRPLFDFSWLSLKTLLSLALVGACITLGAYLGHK
Mcl-1, sequence (Q07820 whole entry): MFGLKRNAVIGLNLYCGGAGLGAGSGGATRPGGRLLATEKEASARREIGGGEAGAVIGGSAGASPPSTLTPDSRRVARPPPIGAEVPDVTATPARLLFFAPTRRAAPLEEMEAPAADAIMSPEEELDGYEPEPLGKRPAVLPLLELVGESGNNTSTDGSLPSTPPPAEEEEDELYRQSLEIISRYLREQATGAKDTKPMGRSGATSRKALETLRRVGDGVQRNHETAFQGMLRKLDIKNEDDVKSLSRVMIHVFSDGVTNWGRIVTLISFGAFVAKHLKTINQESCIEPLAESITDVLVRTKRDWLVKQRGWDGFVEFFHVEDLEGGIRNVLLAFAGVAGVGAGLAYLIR

SMILES | pEC50 [1] | pEC50 [2] | pKi [3] | pEC50 [4] | pEC50 [5] | pKi [7] | pKi [8] | Day 1 Lymphocytes ([6]; 1 oral dose of 100 mg/kg) | Day 4 lymphocytes ([6]; 4 oral doses of 100 mg/kg) | inhibition in vivo at 100 mg/kg [6, 11] [%] | inhibition in vivo at 100 mg/kg [6, 12] [%] | % Mice with PU < 300 mg/dL [9] | % Survival [9] | % Mice with PU < 300 mg/dL [10] | % Survival [10]
CC1(C)CCC(CN2CCN(c3ccc(C(=O)NS(=O)(=O)c4ccc(N[C@H]5CC[C@H](N6CCOCC6)CC5)c([N+](=O)[O-])c4)c(Oc4cnc5[nH]ccc5c4)c3)CC2)=C(c2ccc(Cl)cc2)C1 [Compound 4, Trans-4-(4-{[2-(4-chlorophenyl)-4,4-dimethylcyclohex-1-en-1-yl]methyl}piperazin-1-yl)-N-({4-[(4-morpholin-4-ylcyclohexyl)amino]-3-nitrophenyl}sulfonyl)-2-(1H-pyrrolo[2,3-b]pyridin-5-yloxy)benzamide] | < 5.30 | 8.92 | 8.14 | 7.49 | 7.15 |  |  | 2.62 ×10^6 | 1.72 ×10^6 | 57 | 73 |  |  |  | 
CO[C@H]1CC[C@H](CNc2ccc(S(=O)(=O)NC(=O)c3ccc(N4CCN(CC5=C(c6ccc(Cl)cc6)CC(C)(C)CC5)CC4)cc3Oc3cnc4[nH]ccc4c3)cc2[N+](=O)[O-])CC1 [Compound 5, Trans-4-(4-{[2-(4-chlorophenyl)-4,4-dimethylcyclohex-1-en-1-yl]methyl}piperazin-1-yl)-N-[(4-{[(4-methoxycyclohexyl)methyl]amino}-3-nitrophenyl)sulfonyl]-2-(1H-pyrrolo[2,3-b]pyridin-5-yloxy)benzamide] | < 5.30 | 8.92 | 6.90 | 8.10 | 7.17 | > 11.00 |  | 0.98 ×10^6 | 1.02 ×10^6 | 84 | 84 |  |  |  | 
CC1(C)CCC(CN2CCN(c3ccc(C(=O)NS(=O)(=O)c4ccc(OCC5(F)CCOCC5)c(Cl)c4)c(Oc4cnc5[nH]ccc5c4)c3)CC2)=C(c2ccc(Cl)cc2)C1 [Compound 15, N-({3-chloro-4-[(4-fluorotetrahydro-2H-pyran-4-yl)methoxy]phenyl}sulfonyl)-4-(4-{[2-(4-chlorophenyl)-4,4-dimethylcyclohex-1-en-1-yl]methyl}piperazin-1-yl)-2-(1H-pyrrolo[2,3-b]pyridin-5-yloxy)benzamide] | < 5.30 |  | 7.21 | 7.46 |  |  |  | 1.85 ×10^6 | 1.65 ×10^6 | 72 | 81 |  |  |  | 
COc1c(C)c2c(c(O)c1C/C=C(\C)CCC(=O)OCCN1CCOCC1)C(=O)OC2 [MMF, mycophenolate mofetil, reference compound] |  |  |  |  |  |  |  |  |  |  |  | 40* % | 72* % | 94* % | 100* %

Now from value to molecule, other results behind:

pEC50 [1] | pEC50 [2] | pKi [3] | pEC50 [4] | pEC50 [5] | pKi [7] | pKi [8] | SMILES | Day 1 Lymphocytes ([6]; 1 oral dose of 100 mg/kg) | Day 4 lymphocytes ([6]; 4 oral doses of 100 mg/kg) | inhibition in vivo at 100 mg/kg [6, 11] [%] | inhibition in vivo at 100 mg/kg [6, 12] [%] | % Mice with PU < 300 mg/dL [9] | % Survival [9] | % Mice with PU < 300 mg/dL [10] | % Survival [10]
6.03 |  | 8.03 | 8.57 |  |  |  | CC1(C)CCC(CN2CCN(c3ccc(C(=O)NS(=O)(=O)c4ccc(NC[C@H]5CN(C6CC6)CCO5)c([N+](=O)[O-])c4)c(Oc4cnc5[nH]ccc5c4)c3)CC2)=C(c2ccc(Cl)cc2)C1 [Compound 7, 4-(4-{[2-(4-chlorophenyl)-4,4-dimethylcyclohex-1-en-1-yl]methyl}piperazin-1-yl)-N-{[4-({[(2S)-4-cyclopropylmorpholin-2-yl]methyl}amino)-3-nitrophenyl]sulfonyl}-2-(1H-pyrrolo[2,3-b]pyridin-5-yloxy)benzamide] | 0.89 ×10^6 | 0.95 ×10^6 | 85 | 85 |  |  |  | 
5.54 | 7.92 | 7.68 | 7.51 | 6.56 |  | < 6.36 | CN1CCN(Nc2ccc(S(=O)(=O)NC(=O)c3ccc(N4CCN(CC5=C(c6ccc(Cl)cc6)CC(C)(C)CC5)CC4)cc3Oc3cnc4[nH]ccc4c3)cc2[N+](=O)[O-])CC1 [Compound 10, 4-(4-{[2-(4-chlorophenyl)-4,4-dimethylcyclohex-1-en-1-yl]methyl}piperazin-1-yl)-N-({4-[(4-methylpiperazin-1-yl)amino]-3-nitrophenyl}sulfonyl)-2-(1H-pyrrolo[2,3-b]pyridin-5-yloxy)benzamide] | 2.25 ×10^6 | 2.48 ×10^6 | 65 | 71 |  |  |  | 
5.52 |  | 7.92 | 7.92 |  |  |  | CC1(C)CCC(CN2CCN(c3ccc(C(=O)NS(=O)(=O)c4ccc(OCC5(F)CCN(C6COC6)CC5)c(Cl)c4)c(Oc4cnc5[nH]ccc5c4)c3)CC2)=C(c2ccc(Cl)cc2)C1 [Compound 11, N-[(3-chloro-4-{[4-fluoro-1-(oxetan-3-yl)piperidin-4-yl]methoxy}phenyl)sulfonyl]-4-(4-{[2-(4-chlorophenyl)-4,4-dimethylcyclohex-1-en-1-yl]methyl}piperazin-1-yl)-2-(1H-pyrrolo[2,3-b]pyridin-5-yloxy)benzamide] | 1.76 ×10^6 | 1.71 ×10^6 | 73 | 80 |  |  |  | 
5.56 | 8.64 | 7.64 | 7.77 | 7.23 | > 11.00 |  | CC1(C)CCC(CN2CCN(c3ccc(C(=O)NS(=O)(=O)c4cnc(OCC5(F)CCOCC5)c(Cl)c4)c(Oc4cccc5[nH]ncc45)c3)CC2)=C(c2ccc(Cl)cc2)C1 [Compound 12, N-({5-chloro-6-[(4-fluorotetrahydro-2H-pyran-4-yl)methoxy]pyridin-3-yl}sulfonyl)-4-(4-{[2-(4-chlorophenyl)-4,4-dimethylcyclohex-1-en-1-yl]methyl}piperazin-1-yl)-2-(1H-indazol-4-yloxy)benzamide] | 1.44 ×10^6 | 2.21 ×10^6 | 78 | 74 |  |  |  | 
5.45 |  | 7.70 | 7.66 |  | > 11.00 |  | CC1(C)CCC(CN2CCN(c3ccc(C(=O)NS(=O)(=O)c4cnc(OC[C@H]5CC[C@H](O)CC5)c(Cl)c4)c(Oc4cc(F)cc5[nH]ncc45)c3)CC2)=C(c2ccc(Cl)cc2)C1 [Compound 14, N-({5-chloro-6-[(trans-4-hydroxycyclohexyl)methoxy]pyridin-3-yl}sulfonyl)-4-(4-{[2-(4-chlorophenyl)-4,4-dimethylcyclohex-1-en-1-yl]methyl}piperazin-1-yl)-2-[(6-fluoro-1H-indazol-4-yl)oxy]benzamide] | 3.02 ×10^6 | 2.33 ×10^6 | 54 | 73 |  |  |  | 
5.41 | 9.15 | 7.82 | 8.68 | 7.51 |  |  | CC1(C)CCC(CN2CCN(c3ccc(C(=O)NS(=O)(=O)c4ccc(OCC5(F)CCOCC5)c([N+](=O)[O-])c4)c(Oc4cnc5[nH]ccc5c4)c3)CC2)=C(c2ccc(Cl)cc2)C1 [Compound 16, 4-(4-{[2-(4-chlorophenyl)-4,4-dimethylcyclohex-1-en-1-yl]methyl}piperazin-1-yl)-N-({4-[(4-fluorotetrahydro-2H-pyran-4-yl)methoxy]-3-nitrophenyl}sulfonyl)-2-(1H-pyrrolo[2,3-b]pyridin-5-yloxy)benzamide] | 1.77 ×10^6 | 1.99 ×10^6 | 73 | 77 |  |  |  | 

Source: patent US9872861B2, “Methods of treatment using selective Bcl-2 inhibitors” (AbbVie Inc., priority 2010, dated 2018)
